In patent US20250205177A1, “HONEYBEE ANTIDOTE COMPOSITION” (priority 2023, published 2025):

Experiments:
[1] = system: foragers (field bees) poisoned by carbaryl; assay: Curcumin feeding of forager (field) bees topically poisoned by carbaryl; format: in vivo, honeybees; conditions: indoor feeding
Procedure: (§1) […] These experiments were performed separately on newly emerged honeybees and foragers. While 0.063 ug of an insecticide was administered to the chest of each newly emerged honeybee, 0.11 ug of the insecticide was applied to each forager bee. The intoxicated honeybees were exposed to carbaryl and then fed supplementary food. While the control group consumed only sugar syrup, the experimental group consumed supplementary food containing curcumin. All honeybee groups were fed for 48 hours under controlled laboratory conditions.

[2] = system: detoxification enzymes (oxidases) of honeybees; assay: Gene expression / activity of detoxification enzymes 24 hours after carbaryl exposure; format: in vivo; conditions: 200 ppm curcumin
Procedure: FIGS. 8 and 9 show graphs for explaining gene expression analysis of detoxification enzymes in SU (50% sugar syrup), CU (50% sugar syrup +200 ppm of curcumin), and the control group (ACET, exposed to only 2 ul of acetone and given sugar), 24 hours after being exposed to carbaryl.

[3] = system: honeybees (Apis mellifera) chronically exposed to carbaryl; assay: Long-term indoor feeding with chronic oral exposure to carbaryl; format: in vivo; conditions: 100 ppm curcumin; for mortality rate of honeybees: 10 days
Source text: FIG. 4 is a graph of a Kaplan-Meier survival curve for test honeybees (Apis mellifera) chronically exposed to 2.5 and 5 ppm of carbaryl through oral exposure.
FIGS. 5A and 5B show graphs of the mortality rate of honeybees for 10 days after being chronically exposed to 2.5 ppm (5A) and 5 ppm (5B) of carbaryl.

[4] = system: honeybee colonies used for melon pollination; assay: Field experiment in melon greenhouses: colony strength factors; format: in vivo, honeybees
Procedure: The impact observed when adding 100 ppm of curcumin to greenhouses for growing melons was assessed. Thirty greenhouses owned by three farmers were used in this study. While one group of honeybees was given a solution supplemented with 100 ppm of curcumin (CU100), the control hives were given only 50% sugar syrup. Colony strength factors were measured every 10 days.

[5] = system: newly emerged honeybees (nurse bees) poisoned by carbaryl; assay: Curcumin feeding of newly emerged (nurse) honeybees topically poisoned by carbaryl; format: in vivo; conditions: for mortality rate: nurse bees, indoor feeding
Procedure: as §1

[6] = 100 ppm curcumin, melon greenhouses at Seongju, long-term

COc1cc(/C=C/C(=O)CC(=O)/C=C/c2ccc(O)c(OC)c2)ccc1O [curcumin]
mortality rate ([1]; 50 ppm curcumin, reduced from 35): 24
mortality rate ([1]; 90 ppm curcumin, from 35): 24
mortality rate ([1]; 100 ppm curcumin, reduced from 35): 18
mortality rate ([1]; 110 ppm curcumin, from 35): 24
activity of the detoxification enzymes [2]: even higher level
survival rate of honeybees in exposure experiments to carbaryl ([3]; Kaplan-Meier, 2.5 and 5 ppm carbaryl oral): highest
mortality rate of honeybees ([3]; chronic exposure to 2.5 ppm carbaryl, control 38%): 21%
mortality rate of honeybees ([3]; chronic exposure to 5 ppm carbaryl, control 78%): 55%
rate of hive weight reduction ([4]; 100 ppm curcumin compared with only sucrose solution): lower
number of both adult and larval honeybees [4, 6]: tended to increase
weight of honey storage (honey) [4, 6]: no change
activities of honeybees in outdoor experiments ([4]; group treated with 100 ppm curcumin): excellent
mortality rate of nurse bees compared with control (in words) ([5]; curcumin at varying concentrations after carbaryl exposure): noticeable reduction
mortality rate ([5]; 50 ppm curcumin, reduced from 80): 50
mortality rate ([5]; 90 ppm curcumin, from 80): 33
mortality rate ([5]; 100 ppm curcumin, reduced from 80): 24
mortality rate ([5]; 110 ppm curcumin, from 80): 34
